In the NIST ThermoML archive (doi:10.1016/j.fluid.2014.04.002):

Assay: xn = mol fraction of the nth substance listed
Conditions: 101 kPa, Liquid; for viscosity: Concentric cylinders viscometry; for mass density: Vibrating tube method

COCCOCCOCCOCCOC [2,5,8,11,14-pentaoxapentadecane] + CCOC(=O)C(C)O
Conditions	mass density, 308.15 K [kg/m3]	mass density, 313.15 K [kg/m3]	mass density, 318.15 K [kg/m3]	mass density, 323.15 K [kg/m3]	viscosity, 308.15 K [mPa·s]	viscosity, 313.15 K [mPa·s]	viscosity, 318.15 K [mPa·s]	viscosity, 323.15 K [mPa·s]
x2 = 0	998.153	993.523	988.892	984.262	2.668	2.407	2.185	2.003
x2 = 0.0999	999.806	995.132	990.453	985.775	2.626	2.367	2.147	1.972
x2 = 0.1999	1001.67	996.945	992.217	987.487	2.593	2.336	2.115	1.943
x2 = 0.2999	1003.5	998.729	993.944	989.156	2.557	2.301	2.081	1.91
x2 = 0.3998	1005.51	1000.64	995.8	990.94	2.511	2.257	2.041	1.87
x2 = 0.4999	1007.57	1002.66	997.738	992.806	2.452	2.2	1.991	1.818
x2 = 0.6001	1009.68	1004.68	999.671	994.651	2.385	2.137	1.932	1.763
x2 = 0.6998	1011.95	1006.87	1001.77	996.689	2.293	2.053	1.854	1.69
x2 = 0.8001	1014.25	1009.04	1003.81	998.562	2.184	1.953	1.76	1.605
x2 = 0.9	1016.16	1010.8	1005.43	1000.06	2.046	1.827	1.642	1.496
